From PMC12363342, “Investigating the N-terminal linker histone H1 subtypes as substrates for JmjC lysine demethylases” (RSC Chemical Biology, 2025)
Square brackets hold non-standard residues; d marks the D form. Ends that are not written are not given here. Lys(Me3) = C[N+](C)(C)CCCC[C@H](N)C(=O)O

Biological target: T1, KDM4D (Homo sapiens, UniProt Q6B0I6)
T1 construct: KDM4AM1-L359,[38]; KDM4DM1-L359,[39]; KDM4EM1-R336,[30]; His6 (N); made in house; host or cells: Escherichia coli
T1 sequence (Q6B0I6 1-359): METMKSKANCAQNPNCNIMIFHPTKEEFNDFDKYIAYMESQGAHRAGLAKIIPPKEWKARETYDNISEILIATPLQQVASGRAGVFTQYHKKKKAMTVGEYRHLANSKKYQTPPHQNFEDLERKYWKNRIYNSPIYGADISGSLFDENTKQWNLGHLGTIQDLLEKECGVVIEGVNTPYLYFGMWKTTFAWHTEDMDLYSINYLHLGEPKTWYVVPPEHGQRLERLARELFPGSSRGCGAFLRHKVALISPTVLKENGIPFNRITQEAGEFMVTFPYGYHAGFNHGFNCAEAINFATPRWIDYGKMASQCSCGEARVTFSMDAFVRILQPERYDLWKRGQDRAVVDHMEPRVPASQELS
Experiment: time-course 1H NMR assay of succinate production, KDM4D
Assay type: biochemical
Settings: KDM4D 10 μM, 2OG 400 μM, peptide 400 μM; for oxidation of H1 peptide by KDM4D (succinate production arising from 2OG oxidation): 1H NMR 700 MHz, 298 K, Fe(II) 100 μM, L-ascorbate 1 mM, 50 mM Tris-d11 pH 7.5, 60 min, two independent experiments; for succinate production rate with KDM4D, relative: 1H NMR time course, pH 7.5, compared to H1.4K25me3
Text: Fig. 6 Time-course ^1H NMR analysis for reactions of KDM4D with H1 peptides. (A) KDM4D-catalysed succinate production for H1.3K24me3 (turquoise), H1.4K25me3 (raspberry), and H1.5K26me3 (khaki) compared to that without peptides (black). (B) KDM4D in the presence of 2OG without the H1 peptide; note that only low-level succinate production is observed. (C) Production of succinate measured for KDM4D/H1.3K24me3 over time, as evidenced by increasing integration of the singlet at δ^1H 2.31 ppm (corresponding to the succinate methylenes). Assay conditions are described in the Experimental details section.
NMR spectra were acquired at 298 K using a Bruker AVIII 700 MHz NMR spectrometer equipped with a TCI helium-cooled CryoProbe. Data were processed using TopSpin v.3.6.2 software. Signal intensities were calibrated relative to TSP, δH 0 ppm, and the chemical shifts (ppm) are relative to the resonance of the solvent, δH 4.7 ppm. Assay mixtures contained KDM4D (10 μM), 2OG (400 μM), H1_20–34 peptide (400 μM), Fe(II) ammonium sulfate (100 μM), L-ascorbate (1 mM) and internal standard, 3-(trimethylsilyl)-2,2,3,3-tetradeuteropropionic acid (TSP, 800 μM) in 50 mM Tris-d11, pH 7.5. Aqueous stocks of 2OG, Fe(II) ammonium sulfate and L-ascorbate were prepared fresh on the day of testing. Samples were transferred to 3-mm diameter MATCH NMR tubes (CortecNet) and monitored by ^1H excitation sculpting with baseline optimisation using 16 transients. The time lapse between sample mixing and data acquisition was 6–7 min. The spectra were acquired every 2 min over 60 min. Starting material and product concentrations were quantified relative to the TSP concentration. Samples from two independent experiments were analysed by NMR spectroscopy.

KKKATK[Lys(Me3)]AAGAGAAK [Peptide H1.5K26me3, 15-mer linker histone H1.5 residues 20-34 peptide, tri-methylated K26]
oxidation of H1 peptide by KDM4D (succinate production arising from 2OG oxidation): clear evidence for oxidation
succinate production rate with KDM4D, relative: slightly slower succinate production compared to H1.4K25me3

KKKAR[Lys(Me3)]SAGAAKRKA [Peptide H1.4K25me3, 15-mer linker histone H1.4 residues 20-34 peptide, tri-methylated K25]
oxidation of H1 peptide by KDM4D (succinate production arising from 2OG oxidation): clear evidence for oxidation

KKKA[Lys(Me3)]KAGATAGKRK [Peptide H1.3K24me3, 15-mer linker histone H1.3 residues 20-34 peptide, tri-methylated K24]
oxidation of H1 peptide by KDM4D (succinate production arising from 2OG oxidation): clear evidence for oxidation
succinate production rate with KDM4D, relative: slightly slower succinate production compared to H1.4K25me3
